Test results: patent US12371454B2, “Cyclic peptide compound having Kras inhibitory action” (priority 2019, dated 2025)
Starred links: 1 amine or outer side, 2 acyl side, 3 side chain; linkers in the order of their positions; H or OH if unused. Positions of bridges follow the written chain, without caps; N, C: chain ends. Non-standard residues stand in square brackets, D forms with d. Residues, ends and D or L forms follow the SMILES beside them. *: point of attachment. hPhe(3-Cl-4-CF3) = N[C@@H](CCc1ccc(C(F)(F)F)c(Cl)c1)C(=O)O; hPhe(3-F,4-CF3) = N[C@@H](CCc1ccc(C(F)(F)F)c(F)c1)C(=O)O; X37 = O=C([C@H](CCc1ccc(C(F)F)c(F)c1)N[*:1])[*:2]; NEtAsp = CCN([C@@H](CC(=O)[*:3])C(=O)[*:2])[*:1]; NMePhe(4-Me) = CN[C@@H](Cc1ccc(C)cc1)C(=O)O; NMeNle(6-CHF2) = CN[C@@H](CCCCC(F)F)C(=O)O; NMeGly(cPent) = CN[C@H](C(=O)O)C1CCCC1; NMeGly(cBu) = CN[C@H](C(=O)O)C1CCC1; Gly(cPent) = N[C@H](C(=O)O)C1CCCC1; NMeCha = CN[C@@H](CC1CCCCC1)C(=O)O; cisHyp = O=C(O)[C@@H]1C[C@H](O)CN1; NMehLeu = CN[C@@H](CCC(C)C)C(=O)O; NMeI = CC[C@H](C)[C@H](NC)C(=O)O; NMeD = CN[C@@H](CC(=O)O)C(=O)O; NMeL = CN[C@@H](CC(C)C)C(=O)O; NMeV = CN[C@H](C(=O)O)C(C)C; d(β3hA) = C[C@@H](N)CC(=O)O; NMeS = CN[C@@H](CO)C(=O)O; Morpholide = C1CN(*)CCO1; NMeA = CN[C@@H](C)C(=O)O; Piperidide = C1CCN(*)CC1; Ac5c = NC1(C(=O)O)CCCC1; Aze = O=C(O)[C@@H]1CCN1; X30 = COc1cccc(C*)c1; Sar = CNCC(=O)O; Propyl = CCC*

These compounds were tested on Human pancreatic cancer cell line AsPC-1 (assay: Measurement of AsPC-1 cell growth inhibition (AsPC-1 CGI)). Details: 96 h.
Type: cell-based
Procedure, shortened: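 AsPC-1 cells in 15% FBS RPMI-1640 were exposed to test compound for 96 hours at 37° C, with CellTiter-Glo as endpoint.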

Compared with `CC[C@H](C)[C@@H]1NC(=O)[C@H](CC(C)C)N(C)C(=O)C[C@@H](C(=O)N2CCCCC2)N(C)C(=O)[C@H](C(C)C)N(C)C(=O)C2(CCCC2)NC(=O)[C@@H]2CCCN2C(=O)[C@H](CCc2ccc(C(F)(F)F)c(Cl)c2)NC(=O)CN(C)C(=O)[C@H](CCCCC(F)F)N(C)C(=O)[C@@H]2CCN2C(=O)[C@H](C)N(C)C1=O` [Compound 78] ([NMeL]I[NMeA][Aze][NMeNle(6-CHF2)][Sar][hPhe(3-Cl-4-CF3)]P[Ac5c][NMeV][NMeD]-Piperidide; lactam N-11), `CC[C@H](C)[C@@H]1NC(=O)[C@H](CC(C)C)N(C)C(=O)C[C@@H](C(=O)N2CCCCC2)N(C)C(=O)[C@H]([C@@H](C)CC)N(C)C(=O)C2(CCCC2)NC(=O)[C@@H]2CCCN2C(=O)[C@H](CCc2ccc(C(F)(F)F)c(F)c2)NC(=O)CN(C)C(=O)[C@H](CC2CCCCC2)N(C)C(=O)[C@@H]2CCN2C(=O)[C@H](C)N(C)C1=O` [Compound 409] ([NMeL]I[NMeA][Aze][NMeCha][Sar][hPhe(3-F,4-CF3)]P[Ac5c][NMeI][NMeD]-Piperidide; lactam N-11) is lower in IC50: 100 to 500 nM for the first, 50 to 100 nM for the second. The second is the more potent here.

First: CC[C@H](C)[C@@H]1NC(=O)[C@H](CC(C)C)N(C)C(=O)C[C@@H](C(=O)N2CCCCC2)N(C)C(=O)[C@H](CC(C)C)N(C)C(=O)C2(CCCC2)NC(=O)[C@@H]2C[C@H](OCc3cccc(OC)c3)CN2C(=O)[C@H](CCc2ccc(C(F)(F)F)c(F)c2)NC(=O)CN(C)C(=O)[C@H](CC2CCCCC2)N(C)C(=O)CN(C)C(=O)CN(C)C1=O [Compound 2136] ([NMeL]I[Sar][Sar][NMeCha][Sar][hPhe(3-F,4-CF3)][cisHyp](X30)[Ac5c][NMeL][NMeD]-Piperidide; lactam N-11)
Second: CC[C@H](C)[C@@H]1NC(=O)[C@H](CC(C)C)N(C)C(=O)C[C@@H](C(=O)N2CCCCC2)N(C)C(=O)[C@H](C2CCCC2)N(C)C(=O)C2(CCCC2)NC(=O)[C@@H]2CCCN2C(=O)[C@H](CCc2ccc(C(F)F)c(F)c2)NC(=O)CN(C)C(=O)[C@H](CC2CCCCC2)N(C)C(=O)[C@@H]2CCN2C(=O)[C@H](C)N(C)C1=O [Compound 2085, (5S,8S,11S,15S,18S,23aS,29S,35S,37aS)-8-((S)-sec-butyl)-35-(cyclohexylmethyl)-18-cyclopentyl-29-(4-(difluoromethyl)-3-fluorophenethyl)-11-isobutyl-5,6,12,16,19,33,36-heptamethyl-15-(piperidin-1-carbonyl)docosahydro-2H,4H-spiro[azeto[2,1-u]pyrrolo[2,1-i][1,4,7,10,13,16,19,22,25,28,31]undecazacyclotetratriacontyne-21,1′-cyclopentane]-4,7,10,13,17,20,23,28,31,34,37(14H,22H)-undecone] ([NMeL]I[NMeA][Aze][NMeCha][Sar][X37]P[Ac5c][NMeGly(cPent)][NMeD]-Piperidide; lactam N-11)
The IC50 of the first is higher: greater than 500 nM for the first, 100 to 500 nM for the second.

Compared with `CC[C@H](C)[C@@H]1NC(=O)[C@H](C2CCC2)N(C)C(=O)C[C@@H](C(=O)N2CCCCC2)N(C)C(=O)[C@H](C(C)C)N(C)C(=O)C2(CCCC2)NC(=O)[C@@H]2CCCN2C(=O)[C@H](CCc2ccc(C(F)(F)F)c(Cl)c2)NC(=O)CN(C)C(=O)[C@H](CC2CCCCC2)N(C)C(=O)[C@@H]2CCN2C(=O)[C@H](C)N(C)C1=O` [Compound 1036] ([NMeGly(cBu)]I[NMeA][Aze][NMeCha][Sar][hPhe(3-Cl-4-CF3)]P[Ac5c][NMeV][NMeD]-Piperidide; lactam N-11), `CC[C@H](C)[C@@H]1NC(=O)[C@H](CC(C)C)N(C)C(=O)C[C@@H](C(=O)N2CCCCC2)N(CC)C(=O)[C@H](C2CCCC2)N(C)C(=O)C2(CCCC2)NC(=O)[C@@H]2CCCN2C(=O)[C@H](CCc2ccc(C(F)(F)F)c(Cl)c2)NC(=O)CN(C)C(=O)[C@H](C2CCC2)N(C)C(=O)[C@@H]2CCN2C(=O)[C@H](C)N(C)C1=O` [Compound 1047] ([NMeL]I[NMeA][Aze][NMeGly(cBu)][Sar][hPhe(3-Cl-4-CF3)]P[Ac5c][NMeGly(cPent)][NEtAsp]-Piperidide; lactam N-11) is lower in IC50: 100 to 500 nM for the first, 50 to 100 nM for the second. The second is the more potent here.

First: CC[C@H](C)[C@@H]1NC(=O)[C@H](CC(C)C)N(C)C(=O)C[C@@H](C)NC(=O)[C@H](C2CCCC2)NC(=O)C2(CCCC2)NC(=O)[C@@H]2CCCN2C(=O)[C@H](CCc2ccc(C(F)(F)F)c(Cl)c2)NC(=O)CN(C)C(=O)[C@H](Cc2ccc(C)cc2)N(C)C(=O)[C@@H]2CCN2C(=O)[C@H](C)N(C)C1=O [Compound 1213] (cyclo([Ac5c][Gly(cPent)][d(β3hA)][NMeL]I[NMeA][Aze][NMePhe(4-Me)][Sar][hPhe(3-Cl-4-CF3)]P))
Second: CC[C@H](C)[C@@H]1NC(=O)[C@H](CCC(C)C)N(C)C(=O)C[C@@H](C(=O)N2CCOCC2)N(C)C(=O)[C@H](C2CCCC2)N(C)C(=O)C2(CCCC2)NC(=O)[C@@H]2CCCN2C(=O)[C@H](CCc2ccc(C(F)(F)F)c(Cl)c2)NC(=O)CN(C)C(=O)[C@H](CC2CCCCC2)N(C)C(=O)[C@@H]2CCN2C(=O)[C@H](C)NC1=O [Compound 1171] ([NMehLeu]IA[Aze][NMeCha][Sar][hPhe(3-Cl-4-CF3)]P[Ac5c][NMeGly(cPent)][NMeD]-Morpholide; lactam N-11)
The IC50 of the first is higher: 100 to 500 nM for the first, 20 to 50 nM for the second. The second is the more potent here.

`CCCOC[C@H]1C(=O)N(C)CC(=O)N[C@@H](CCc2ccc(C(F)(F)F)c(F)c2)C(=O)N2CCC[C@H]2C(=O)NC2(CCCC2)C(=O)N(C)[C@@H]([C@@H](C)CC)C(=O)N(C)[C@H](C(=O)N2CCOCC2)CC(=O)N(C)[C@@H](CC(C)C)C(=O)N[C@@H]([C@@H](C)CC)C(=O)N(C)[C@@H](C)C(=O)N2CC[C@H]2C(=O)N1C` [Compound 827] ([NMeL]I[NMeA][Aze][NMeS](Propyl)[Sar][hPhe(3-F,4-CF3)]P[Ac5c][NMeI][NMeD]-Morpholide; lactam N-11) showed an IC50 of 20 to 50 nM.
